In a melting point compilation (Tetko et al.):

SMILES	melting point
Nc1nc(-c2cc(Cl)ccc2Cl)cs1	161 to 165 °C
COC(C)c1ncc(C(=O)O)s1 (stereo unspecified)	131 to 133 °C
CCOCCCNc1nnc(S)s1	63 to 65 °C
Nc1nnc(-c2ccoc2)[nH]1	188 to 190 °C
NS(=O)(=O)c1ccc2c(c1)CCN2	162 to 166 °C
Cc1cc(C)c(S(=O)(=O)Nc2cccc(C(F)(F)F)c2)c(C)c1	88 to 90 °C
O=C(O)C1CC(=O)N(c2cn[nH]c2)C1 (stereo unspecified)	259 to 261 °C
c1cc(-c2nc3cc4c(cc3[nH]2)OCCO4)cs1	279 to 281 °C
NC(=O)Cn1ccc(N)n1	112 to 114 °C
Cc1nnc(-c2ccc(N)cc2)o1	195 to 197 °C
CCc1cccc2c(CCN)c[nH]c12	91 to 93 °C
CC(=O)c1cc2cc(C)c(C)cc2o1	89 to 91 °C
Cc1sc(C(=O)O)cc1CS(C)(=O)=O	233 to 235 °C
Cc1oc2nc(CCl)nc(N)c2c1C	179 to 181 °C
Cc1cc(C)cc(C2(C(=O)O)CC2)c1	164 to 166 °C
CCn1cnnc1S	98 to 100 °C
O=[N+]([O-])c1cccc(-c2nnc(CCl)o2)c1	115 to 117 °C
Nc1cc(N2CCOCC2)c(F)cc1[N+](=O)[O-]	185 to 187 °C
NS(=O)(=O)c1ccc(N2CCNCC2)cc1	219 to 221 °C
CC1(C)NC(=O)N(CCBr)C1=O	97 to 99 °C

SMILES	melting point
CCN1CCN(c2ccc(C#N)cn2)CC1	69 to 71 °C
COC(=O)c1cc([N+](=O)[O-])cc([N+](=O)[O-])c1OC	69 to 71 °C
[N-]=[N+]=NC(C(=O)NC1CC1)c1ccc(F)cc1 (stereo unspecified)	53 to 55 °C
CN1CCN(C(N)=S)CC1	179 to 181 °C
Cc1csc2ncc(C(=O)O)c(=O)n12	249 to 251 °C
N=c1sccn1CC(=O)O	243 to 247 °C
Nc1ccc(SC(F)(F)F)c(F)c1	33 to 35 °C
Cc1cc(C=O)c(C)n1-c1ccnn1C(C)C	77 to 79 °C
COC(=O)c1cc(S(N)(=O)=O)cnc1Cl	60 to 62 °C
CC(C)CCNC(N)=S	93 to 95 °C
NNC(=S)Nc1ccccc1F	159 to 161 °C
Cc1nc2cc(N)ccc2o1	72 to 74 °C
COCCCOc1cc(C)ccc1C#N	67 to 69 °C
Fc1c(Br)cncc1Br	97 to 99 °C
N#CCc1cc(Br)c2c(c1)C=CCO2	79 to 81 °C
COC(=O)/C=C1\SCC(=O)N1CCCCl	95 to 97 °C
Fc1ccc(Nc2nnc(S)s2)cc1	185 to 187 °C
CN(C)S(=O)(=O)c1cc(N)ccc1Cl	125 to 129 °C
Cc1cc(C)cc(C(=O)/C=C2\NC(=O)CS2)c1	163 to 165 °C
CCCS(=O)(=O)NC(C)C(=O)O (stereo unspecified)	64 to 66 °C

SMILES	melting point
CCc1nc2sccc2c(=O)n1N	132 to 134 °C
CCOC(=O)c1sc(NC(=O)CCl)c(C(=O)OC(C)(C)C)c1C	148 to 150 °C
O=C(O)c1cc([N+](=O)[O-])cc(S(=O)(=O)Cl)c1	162 to 164 °C
CCOC(=O)C(=O)c1nccn1C	52 to 54 °C
CN(C)c1ccc(C2=CCNC2)cc1	99 to 101 °C
CC(C)(C)n1cc(C(=O)O)c(-c2ccccc2Cl)n1	164 to 166 °C
CC(C)(C)c1nnc(S)n1N	185 to 189 °C
COc1ccc2c(C)cc3nnc(S)n3c2c1	256 to 258 °C
O=C(O)C=Cc1cc[nH]c1	183 to 185 °C
O=C(c1cc(Cl)c(Cl)[nH]1)C(Cl)(Cl)Cl	129 to 131 °C
O=c1ccc2cc(S(=O)(=O)Cl)ccc2[nH]1	278 to 280 °C
Cc1ccc(C2NCC(CCl)O2)cc1 (stereo unspecified)	60 to 64 °C
Cc1csc2nc(CO)cc(=O)n12	154 to 156 °C
CCOC(=O)N1CCc2nnc(Cl)cc2C1	106 to 108 °C
Cc1nc(-c2cccc(N)c2)oc1C	104 to 106 °C
O=C(CCl)Nc1ccc(Br)cc1F	133 to 135 °C
Nc1ccc(F)c(NC(=O)C2CC2)c1	121 to 123 °C
C/C(=N\O)c1sc(C(C)(C)C)nc1C	117 to 119 °C
CCOCCn1c(N)cc(=O)[nH]c1=O	257 to 259 °C
O=C(O)c1cc(Cl)c([N+](=O)[O-])[nH]1	236 to 238 °C

The next lines start with the values.

melting point	SMILES
121 to 123 °C	Cc1nn(-c2ccc(Cl)cc2)cc1C=O
225 to 227 °C	O=C(O)c1ccc(Cl)c(S(=O)(=O)Nc2ccc(Br)cc2)c1
222 to 224 °C	Cc1ccccc1CC(=O)Nc1ccc(C(=O)O)c(O)c1
159 to 161 °C	COc1ccccc1NCC(=O)O
94 to 96 °C	O=C1CCN(c2ccccc2)C1
210 to 212 °C	O=C(O)Cn1nnc2ccccc21
112 to 114 °C	COc1ccc(-c2nc3c(s2)C(=O)CCC3)cc1
118 to 120 °C	CCOc1cccc(C(N)=S)c1
293 to 295 °C	Cc1[nH]c2ccnn2c(=O)c1CC(=O)O
87 to 89 °C	Clc1ccc(NCc2ccccn2)cc1
85 to 87 °C	ClCc1ncc(-c2ccccc2Br)o1
143 to 145 °C	Clc1ccc(Cl)c(-c2cc[nH]n2)c1
276 to 278 °C	Nc1cc(C(=O)O)c(Br)cn1
56 to 58 °C	Cc1cc(Br)ccc1OCc1ccccc1
94 to 96 °C	CC(C#N)CSc1ccccc1NC(=O)CCl (stereo unspecified)
143 to 145 °C	CC(C(=O)O)n1nnc(-c2ccccc2)n1 (stereo unspecified)
55 to 57 °C	Cc1ccc(NS(=O)(=O)c2cc(C(=O)O)ccc2C)cc1
155 to 157 °C	O=C(O)CSc1nc2cc(Cl)ccc2n1Cc1ccccc1
130 to 132 °C	Cc1occc1C(=O)Nc1cc(N)ccc1F
266 to 268 °C	Cc1ccc(-c2cncc(C(=O)O)c2)cc1
111 to 113 °C	CC(C)CCNS(=O)(=O)Cc1ccc(N)cc1

melting point	SMILES
193 to 195 °C	O=C(O)C(Cc1ccccc1)N1C(=O)C=CC1=O (stereo unspecified)
269 to 271 °C	CNC1=NS(=O)(=O)c2ccccc21
82 to 84 °C	CCOc1ccc(S(=O)(=O)N(C)c2ccc(OCC(=O)O)cc2)cc1
139 to 141 °C	N#Cc1cnn(-c2cccc(Cl)c2)c1
143 to 145 °C	Clc1nnc(-c2cccc3ncccc23)s1
254 to 256 °C	O=C(O)c1ccc(-c2nc3ccccc3s2)s1
65 to 67 °C	Cc1ccc(S(=O)(=O)OC2CCCC2c2ccccc2)cc1 (stereo unspecified)
173 to 175 °C	Cc1ccc(S(=O)(=O)c2ccc(NN)cc2)cc1
73 to 75 °C	CCOC(=O)c1ccc(OCC#N)cc1
103 to 105 °C	CSCCC(NS(=O)(=O)c1ccccc1)C(=O)O (stereo unspecified)
134 to 136 °C	O=C(O)C1CCCN1C(=O)c1ccccc1O (stereo unspecified)
105 to 107 °C	Oc1ccc(CNC2CCCCC2)cc1
127 to 129 °C	CS(=O)(=O)Cc1ccc(S(=O)(=O)Cl)cc1
173 to 175 °C	O=C1CC2(Cc3ccccc3C2)C(=O)N1
209 to 211 °C	CC1(c2ccc(C#N)cc2)NC(=O)NC1=O (stereo unspecified)
64 to 66 °C	Cc1ncc(C=O)n1-c1ccccc1
235 to 237 °C	Nc1nncc(-c2ccccc2)n1
143 to 145 °C	O=C(O)CCNS(=O)(=O)c1cccc(Cl)c1
77 to 79 °C	Cn1ccnc1-c1cc(Cl)ccn1
334 to 336 °C	Nc1cc(C(=O)O)ccc1-n1cnnc1
139 to 141 °C	COc1ccc(C(=O)O)nn1

melting point	SMILES
194 to 196 °C	COc1ccc(NC2=C(Cl)C(=O)N(c3ccc(C)cc3)C2=O)cc1
172 to 174 °C	COc1ccc(S(=O)(=O)NC(C(=O)O)C(C)C)cc1 (stereo unspecified)
105 to 107 °C	Cc1ccc(CC(=O)O)cc1O
227 to 229 °C	Cc1ccc(-n2nc(C(=O)O)c3ccccc3c2=O)cc1Cl
176 to 178 °C	Cc1sc(NC(=O)CCl)nc1-c1ccc(Cl)cc1
168 to 170 °C	CC(C)NC(=O)NCc1ccc(C(=O)O)cc1
159 to 161 °C	CC(Cl)C(=O)Nc1ccc(I)cc1 (stereo unspecified)
47 to 50 °C	Clc1cnc2ccccc2n1
94 to 96 °C	NCc1ccc(N2CCOC2=O)cc1
179 to 181 °C	O=C(O)C1(c2ccc(Br)cc2)CCCCC1
153 to 155 °C	O=C(O)Cc1ccc(OCc2ccccn2)cc1
149 to 151 °C	CCCOc1ccc(C=CC(=O)O)cc1OCC
290 to 292 °C	O=c1oc2ccccc2c(O)c1Cc1c(O)c2ccccc2oc1=O
51 to 55 °C	O=C1CC(c2ccccc2)C(=O)O1 (stereo unspecified)
88 to 90 °C	N#CCCCOc1cccnc1N
163 to 165 °C	COc1ccc(NS(=O)(=O)c2ccc(N)c(N)c2)cc1
251 to 253 °C	COC(=O)c1cc(NS(=O)(=O)c2cccs2)cc(NS(=O)(=O)c2cccs2)c1
196 to 198 °C	O=C(O)c1cccnc1C1CC1
79 to 81 °C	CCOC(=O)Nc1ccc(Br)cc1N
99 to 101 °C	COc1ccc(Br)cc1C(N)CO (stereo unspecified)
174 to 176 °C	O=C(O)CNC(=O)c1ccccc1I

melting point	SMILES
211 to 213 °C	N#Cc1cc(Cl)ccc1Oc1cccc(C(=O)O)c1
168 to 170 °C	Cc1cccc(NC(=O)Nc2cccc3c2NCCC3)c1
243 to 245 °C	Cc1ccc2[nH]c(C(=O)O)cc2c1C
263 to 265 °C	O=C(O)/C=C/c1ccc(S(=O)(=O)NC2CC2)cc1
187 to 189 °C	CC1(c2ccc(N)cc2)NC(=O)NC1=O (stereo unspecified)
179 to 181 °C	CC(C)(C)OC(=O)Nc1cc(Br)ccc1C(=O)O
231 to 233 °C	O=C(O)c1cc(S(=O)(=O)NCc2ccccn2)c(Cl)cc1Cl
121 to 123 °C	CC(C)Oc1ccc(S(N)(=O)=O)cc1
119 to 121 °C	CCOc1ccccc1C(N)(C(=O)O)C(F)(F)F (stereo unspecified)
249 to 251 °C	Nc1cccc(-n2ccc(C(=O)O)n2)c1
215 to 217 °C	Cc1cc(-c2nccn2Cc2ccccc2)c(=O)[nH]n1
155 to 157 °C	Nc1ncncc1-c1ccccc1
106 to 108 °C	COCc1nc(C(=O)O)cs1
204 to 206 °C	Nc1nncc(-c2ccccc2F)n1
193 to 195 °C	Nc1nnc(Cc2cccc(F)c2)s1
79 to 81 °C	Nc1ccccc1CN1CCC(CO)CC1
153 to 155 °C	N#Cc1cc(Cl)nc2ccccc12
213 to 215 °C	Cc1nccn1-c1ccc(C#N)cn1
